Test results reported in patent US9212175B2, “Pharmaceutical hypocholesterolemic compositions” (Lipideon Biotechnology AG, priority 2009, dated 2015).

What was measured:
[1] = Determination of absorption: unidirectional permeability assay (Cloe Screen, Cyprotex); type: in vitro ADME; settings: human, Caco-2, apical side, cell monolayer, read-out: Papp in cm · s^−1
Description: It has further been shown that the compounds of the invention display the desired pharmacological activity by evaluation of their potency in vivo (in mice and hamsters). The bioavailability of the compounds of the present invention has been determined by unidirectional Caco2 Permeability measurement.
Determination of Absorption
The permeability of the compounds of the present invention was determined using the Cloe Screen® (unidirectional Cloe Screen […] permeability assay; Cyprotex) and is expressed by Papp (cm·s^−1). Caco-2 cells are widely used as an in vitro model for predicting human drug absorption. The Caco-2 cell line is derived from a human colorectal carcinoma, and when cultured, the cells spontaneously differentiate into monolayers of polarised enterocytes. The cells are typically seeded on Transwell™ plates and form a confluent monolayer over 20 days prior to the experiment. On day 20, the test compound is added to the apical side of the membrane and the transport of the compound across the monolayer is monitored over a 2 hour time period. The permeability coefficient (Papp) is calculated from the equation: Papp=(dQ/dt)/(C0xA), where (dQ/dt) is the rate of permeation of the drug across the cells, C0 is the donor compartment concentration at time zero and A is the area of the cell monolayer.

[2] = tested on: C56BL/6 mice; test: Acute cholesterol absorption inhibition assay in mice; type: in vivo; settings: [3H]-cholesterol counts in plasma 2 h after cholesterol, relative to vehicle control
Description: Accute Cholesterol Absorption Inhibition Assay in Mice
Compounds were added to a solution of 0.5% Methylcellulose (Sigma)/5% Solutol, BASF) or another suitable vehicle at a concentration of 0.1-1 mg/ml. C56BL/6 mice (n=3-6/group), aged 6-8 weeks were dosed orally with 0.1 ml of vehicle or 0.1 mL of vehicle containing the test compound (0.5-5 mg/kg) or ezetimibe (10 mg/kg) as positive control. Thirty minutes later all of the mice were dosed orally with 0.1 mL corn oil containing 2 μCi [^3H]-cholesterol per mouse. Two hours after administration of radiolabeled cholesterol, the animals were euthanized and blood collected. Cholesterol counts in plasma were determined, and percent inhibition of cholesterol absorption was calculated relative to the vehicle control.

[3] = tested on: Syrian Golden Hamsters; test: Long-term LDL lowering in Syrian Golden hamsters; type: in vivo; settings: hamsters on high fat diet, dose 3 × 1 mg/kg/day, day 14, relative to vehicle control
Description: Long-Term LDL Lowering in Syrian Golden Hamsters
Groups of 6 male hamsters weighing 90±10 g are fed a high fat diet (g/100 g: corn oil, 5; coconut oil, 5; cholesterol, 0.2; standard chow, 89.8) for 7 days. Afterwards vehicle or test compounds (3-10 mg/kg bw/day) in a solution of 0.5% Methylcellulose, 5% Solutol or another suitable vehicle are administered at least three times daily for 14 consecutive days. Following an overnight fasting period, blood serum is obtained from the retro-orbital sinus of each animal on day 0 (7 days after initiating of the high fat diet) and on days 8 and 15 after dosing for 7 and 14 days. The serum is assayed for total cholesterol, LDL-cholesterol, HDL-cholesterol and triglycerides. The percent change of treated relative to the vehicle control group is determined.

| SMILES | Papp A→B at 2 h [1] | Cholesterol Absorption Inhibition (%) ([2]; oral dose 1 mg/kg) | LDL reduction @ day 14 (%) [3] | Cholesterol Absorption Inhibition (%) ([2]; oral dose 10 mg/kg (positive control)) |
| --- | --- | --- | --- | --- |
| O=C(O)COC1(CCc2ccc([C@@H]3[C@@H](CC[C@H](O)c4ccc(F)cc4)C(=O)N3c3ccc(F)cc3)cc2)COC1 [Example 1, 2-(3-(4-((2S,3R)-1-(4-fluorophenyl)-3-((S)-3-(4-fluorophenyl)-3-hydroxypropyl)-4-oxoazetidin-2-yl)phenethyl)oxetan-3-yloxy)acetic acid] | 1.68 ×10⁻⁶ cm/s | 87% |  |  |
| O=C(O)[C@H]1CCCN1C(=O)COC1(CCc2ccc([C@@H]3[C@@H](CC[C@H](O)c4ccc(F)cc4)C(=O)N3c3ccc(F)cc3)cc2)COC1 [Example 19, (R)-1-(2-(3-(4-((2S,3R)-1-(4-fluorophenyl)-3-((S)-3-(4-fluorophenyl)-3-hydroxypropyl)-4-oxoazetidin-2-yl)phenethyl)oxetan-3-yloxy)acetyl)pyrrolidine-2-carboxylic acid] | 0.14 ×10⁻⁶ cm/s | 83% |  |  |
| O=C(O)[C@@H]1CCCN1C(=O)COC1(CCc2ccc([C@@H]3[C@@H](CC[C@H](O)c4ccc(F)cc4)C(=O)N3c3ccc(F)cc3)cc2)COC1 [Example 20, (S)-1-(2-(3-(4-((2S,3R)-1-(4-fluorophenyl)-3-((S)-3-(4-fluorophenyl)-3-hydroxypropyl)-4-oxoazetidin-2-yl)phenethyl)oxetan-3-yloxy)acetyl)pyrrolidine-2-carboxylic acid] |  | 42% |  |  |
| NC(=O)[C@H]1CCCN1C(=O)COC1(CCc2ccc([C@@H]3[C@@H](CC[C@H](O)c4ccc(F)cc4)C(=O)N3c3ccc(F)cc3)cc2)COC1 [Example 22, (R)-1-(2-(3-(4-((2S,3R)-1-(4-fluorophenyl)-3-((S)-3-(4-fluorophenyl)-3-hydroxypropyl)-4-oxoazetidin-2-yl)phenethyl)oxetan-3-yloxy)acetyl)pyrrolidine-2-carboxamide] |  | 80% |  |  |
| O=C(O)C1CCCCN1C(=O)COC1(CCc2ccc([C@@H]3[C@@H](CC[C@H](O)c4ccc(F)cc4)C(=O)N3c3ccc(F)cc3)cc2)COC1 (stereo partly drawn) [Example 23, 1-(2-(3-(4-((2S,3R)-1-(4-fluorophenyl)-3-((S)-3-(4-fluorophenyl)-3-hydroxypropyl)-4-oxoazetidin-2-yl)phenethyl)oxetan-3-yloxy)acetyl)piperidine-2-carboxylic acid] |  | 73% |  |  |
| O=C(COC1(CCc2ccc([C@@H]3[C@@H](CC[C@H](O)c4ccc(F)cc4)C(=O)N3c3ccc(F)cc3)cc2)COC1)NCCS(=O)(=O)O [Example 28, 2-(2-(3-(4-((2S,3R)-1-(4-fluorophenyl)-3-((S)-3-(4-fluorophenyl)-3-hydroxypropyl)-4-oxoazetidin-2-yl)phenethyl)oxetan-3-yloxy)acetamido)ethanesulfonic acid] |  | 63% |  |  |
| O=C(COC1(CCc2ccc([C@@H]3[C@@H](CC[C@H](O)c4ccc(F)cc4)C(=O)N3c3ccc(F)cc3)cc2)COC1)N[C@H](CO)C(=O)O [Example 34, (R)-2-(2-(3-(4-((2S,3R)-1-(4-fluorophenyl)-3-((S)-3-(4-fluorophenyl)-3-hydroxypropyl)-4-oxoazetidin-2-yl)phenethyl)oxetan-3-yloxy)acetamido)-3-hydroxypropanoic acid] | 0.57 ×10⁻⁶ cm/s |  | 76% |  |
| O=C(COC1(CCc2ccc([C@@H]3[C@@H](CC[C@H](O)c4ccc(F)cc4)C(=O)N3c3ccc(F)cc3)cc2)COC1)NC1(C(=O)O)CCC1 [Example 35, 1-(2-(3-(4-((2S,3R)-1-(4-fluorophenyl)-3-((S)-3-(4-fluorophenyl)-3-hydroxypropyl)-4-oxoazetidin-2-yl)phenethyl)oxetan-3-yloxy)acetamido)cyclobutanecarboxylic acid] | 0.73 ×10⁻⁶ cm/s |  | 80% |  |
| CC(C)[C@@H](NC(=O)COC1(CCc2ccc([C@@H]3[C@@H](CC[C@H](O)c4ccc(F)cc4)C(=O)N3c3ccc(F)cc3)cc2)COC1)C(=O)O [Example 39, (R)-2-(2-(3-(4-((2S,3R)-1-(4-fluorophenyl)-3-((S)-3-(4-fluorophenyl)-3-hydroxypropyl)-4-oxoazetidin-2-yl)phenethyl)oxetan-3-yloxy)acetamido)-3-methylbutanoic acid] | 0.92 ×10⁻⁶ cm/s | 82% | 74% |  |
| O=C(COC1(CCc2ccc([C@@H]3[C@@H](CC[C@H](O)c4ccc(F)cc4)C(=O)N3c3ccc(F)cc3)cc2)COC1)NC(CO)(CO)CO [Example 46, N-(1,3-dihydroxy-2-(hydroxymethyl)propan-2-yl)-2-(3-(4-((2S,3R)-1-(4-fluorophenyl)-3-((S)-3-(4-fluorophenyl)-3-hydroxypropyl)-4-oxoazetidin-2-yl)phenethyl)oxetan-3-yloxy)acetamide] | 1.09 ×10⁻⁶ cm/s |  | 67% |  |
| O=C1[C@H](CC[C@H](O)c2ccc(F)cc2)[C@@H](c2ccc(O)cc2)N1c1ccc(F)cc1 [Ezetimibe, reference compound] | 46 ×10⁻⁶ cm/s |  |  | 87% |
